Data taken from patent US20240197729A1, “ALK-5 Inhibitors and Uses Thereof” (Sumitomo Pharma Oncology, Inc., priority 2021, published 2024).

Experiments:
[1] = system: A549 lung fibroblasts; assay: Epithelial to mesenchymal transition gene expression in A549; format: cell-based; conditions: 5 ng/ml TGF-beta1, 48 h, up to 5 micromolar
Protocol: To evaluate whether Compounds 01 and 04 could inhibit epithelial to mesenchymal transition (EMT), an in vitro model using A549 lung fibroblasts was utilized. A549 cells were purchased from ATCC (CCL-185), and grown in RPMI media supplemented with 10 percent fetal bovine serum (FBS). On the day of the experiment, ten thousand A549 cells were seeded in eighty microliters total volume into a flat, tissue culture coated, ninety-six-well plate. Drugs, including positive control compounds vactosertib, PF-06952229 and LY3200882, were added in an eight point, one to three dilution series with the highest concentration of each drug being five micromolar, bringing the total volume of each well to ninety microliters. DMSO, which served to dissolve the 10 millimolar stock solution of each drug, was normalized across all wells After one hour of drug pretreatment, recombinant human TGF-beta1 was added to a final concentration of five nanograms per milliliter, bringing the volume to one hundred microliters. Recombinant human TGF-beta 1 was purchased from R&D Systems (7754-BH-005) and its stock solution was prepared according to manufacturer's instructions and diluted in RPMI media supplemented with 10% FBS. The ninety-six well plate with one hundred microliter volume was incubated at 37° C. at 5% CO2 for forty-eight hours. At the end of the incubation period, gene expression levels of various EMT markers were assessed using a custom designed QuantiGene Plex Gene Expression Assay. The genes chosen were CDH1 (E-cadherin), CDH2 (N-Cadherin), SNAI1 (Snail), SNAI2 (Slug), VIM (Vimentin), SPARC, GALNT6, CTNNB1 (beta-catenin), TGFB1, and MAML3.
Briefly, cell lysate was prepared using the QuantiGene Sample Processing Kit —Cultured Cells (QS0100) in the ninety-six well plate. Cell lysates were then subjected to bead hybridization, multiple probe hybridization steps and SAPE labeling following manufacturer's instruction. The plate was read on a Luminex MAGPIX instrument.

[2] = system: TGF-β1-mediated αSMA expression; conditions: human, 73 h
Protocol: To test the ability of selected compounds to inhibit the TGF-β1-dependent transition of fibroblasts to myofibroblasts in a relevant disease model of IPF, an FMT assay was performed using lung fibroblasts from IPF patients. In this assay, the transition of fibroblasts to myofibroblasts is determined by the expression of the biomarker alpha smooth muscle actin (α-SMA).
Primary human bronchial fibroblasts derived from IPF patients were seeded on day zero and the media was refreshed on day two. On day five, selected compounds or controls were added at an eight-point concentration response curve starting at 10 μM (semi-log dilutions). Each drug concentration condition was evaluated in biological duplicates. […] Seventy-two hours following TGF-beta addition, the cells were fixed with formaldehyde. High content imaging evaluating cell number using the nuclear stain DAPI as well as the expression of a-SMA was performed. The following controls were run alongside the selected compounds: vactosertib and the approved IPF drug nintedanib (at an eight-point, semi-log curve with 10 μM starting concentration). As a negative control 0.1% DMSO was also used, matching the DMSO concentration in treated wells. The following calculations were used to determine cell number as well as percent inhibition (PIN) of alpha SMA expression:
• Segmentation and quantification of αSMA immunoreactivity by an HCA algorithm, with density×area (D×A) output • Data normalization of raw αSMA (D×A) to percentage inhibition (PIN) values, on a plate-to-plate basis
• DAPI fluorescence applied for HCA-based quantification of the number of imaged cells, on a plate-to-plate basis
[formula] • μn is the average numbers of nuclei of the vehicle control (TGF-β1+0.1% DMSO) • Xi is the compound number of nuclei

SMILES	CDH1 (E-Cadherin) gene expression [1]	expression of the nine genes induced with EMT (CDH2, SNAI1, SNAI2, VIM, SPARC, GALNT6, CTNNB1, TGFB1, MAML3) [1]	Potentially toxic concentration [2]
Cc1nn(CC(F)(F)F)cc1Nc1cc(Nc2cnnc3c(C)cccc23)ccn1 [Compound 01, N2-[3-methyl-1-(2,2,2-trifluoroethyl)-1H-pyrazol-4-yl]-N4-(8-methylcinnolin-4-yl)pyridine-2,4-diamine]	inhibition of downregulation of CDH1 (E-Cadherin)	inhibition of induction of the nine genes that are induced with EMT	–
Cc1cccc(-c2[nH]c(CNc3ccccc3F)nc2-c2ccc3ncnn3c2)n1 [Vactosertib, vactosertib, reference compound]	–	–	5.0
Clc1cccc2c(Nc3ccnc(Nc4cccc(N5CCOCC5)c4)c3)cnnc12 [Compound 04, N4-(8-chlorocinnolin-4-yl)-N2-[3-(morpholin-4-yl)phenyl]pyridine-2,4-diamine]	inhibition of downregulation of CDH1 (E-Cadherin)	inhibition of induction of the nine genes that are induced with EMT	–
